Results published in ChEMBL document CHEMBL1156067, “Pyrimidine-based antagonists of h-MCH-R1 derived from ATC0175: in vitro profiling and in vivo evaluation” (Bioorg Med Chem Lett, 2009).
Active and inactive are the calls of the source. The rule behind the calls is not given here.

How the values were obtained:
[1] = target: T1, Melanin-concentrating hormone receptor 1 (Homo sapiens, UniProt Q99705); experiment: Antagonist activity at CART form of human MCH1 receptor expressed in HEK293 cells coexpressing Galphaq assessed as inhibition of MCH-induced intracellular calcium level by FLIPR assay; assay type: functional, cell-based
Target sequence in this assay (Q99705 whole entry, looked up): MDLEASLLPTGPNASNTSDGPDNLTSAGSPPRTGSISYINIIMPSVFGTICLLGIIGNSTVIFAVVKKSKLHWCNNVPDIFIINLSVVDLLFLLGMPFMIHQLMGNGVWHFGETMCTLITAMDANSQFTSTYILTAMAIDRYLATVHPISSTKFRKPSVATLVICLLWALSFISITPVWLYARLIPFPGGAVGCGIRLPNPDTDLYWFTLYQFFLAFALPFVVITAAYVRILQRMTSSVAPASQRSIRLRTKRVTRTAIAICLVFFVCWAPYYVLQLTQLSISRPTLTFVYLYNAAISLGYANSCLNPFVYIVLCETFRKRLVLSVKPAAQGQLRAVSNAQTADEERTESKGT

[2] = target: T2, 5-hydroxytryptamine receptor 2B (Homo sapiens, UniProt P41595); experiment: Displacement of [3H]rauwolsine from human 5HT2B receptor
T2 sequence (P41595 whole entry): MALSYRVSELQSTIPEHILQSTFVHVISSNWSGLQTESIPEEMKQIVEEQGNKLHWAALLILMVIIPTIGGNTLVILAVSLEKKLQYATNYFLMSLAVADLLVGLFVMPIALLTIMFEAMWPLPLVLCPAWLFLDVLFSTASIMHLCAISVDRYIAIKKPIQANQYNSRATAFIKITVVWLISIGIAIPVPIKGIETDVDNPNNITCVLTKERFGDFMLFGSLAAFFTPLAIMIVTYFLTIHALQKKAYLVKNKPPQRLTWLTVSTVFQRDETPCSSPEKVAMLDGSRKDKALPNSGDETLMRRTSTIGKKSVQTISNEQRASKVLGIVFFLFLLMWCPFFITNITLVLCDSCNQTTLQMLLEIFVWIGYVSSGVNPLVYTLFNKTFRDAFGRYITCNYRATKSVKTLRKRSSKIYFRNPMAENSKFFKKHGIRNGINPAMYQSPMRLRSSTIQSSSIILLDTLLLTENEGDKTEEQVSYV

[3] = target: T3, Alpha-2A adrenergic receptor (Homo sapiens, UniProt P08913); experiment: Displacement of [3H]MK-912 from human adrenergic alpha2A receptor
T3 sequence (P08913 whole entry): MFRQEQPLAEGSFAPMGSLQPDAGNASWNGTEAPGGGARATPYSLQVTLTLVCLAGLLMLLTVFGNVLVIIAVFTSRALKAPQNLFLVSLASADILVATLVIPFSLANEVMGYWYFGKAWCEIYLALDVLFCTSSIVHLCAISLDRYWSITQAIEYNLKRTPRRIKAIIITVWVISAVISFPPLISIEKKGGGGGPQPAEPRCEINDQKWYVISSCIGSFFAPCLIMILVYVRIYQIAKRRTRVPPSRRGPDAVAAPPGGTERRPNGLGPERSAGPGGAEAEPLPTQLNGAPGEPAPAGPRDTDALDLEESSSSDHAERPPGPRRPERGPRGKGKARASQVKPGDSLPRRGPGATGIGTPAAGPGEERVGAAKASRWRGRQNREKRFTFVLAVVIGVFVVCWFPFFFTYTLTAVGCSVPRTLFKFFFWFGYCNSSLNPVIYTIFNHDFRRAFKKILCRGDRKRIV

[4] = target: T4, Alpha-1A adrenergic receptor (Homo sapiens, UniProt P35348); experiment: Displacement of [3H]prazosin from human adrenergic alpha1A receptor
T4 sequence (P35348 whole entry): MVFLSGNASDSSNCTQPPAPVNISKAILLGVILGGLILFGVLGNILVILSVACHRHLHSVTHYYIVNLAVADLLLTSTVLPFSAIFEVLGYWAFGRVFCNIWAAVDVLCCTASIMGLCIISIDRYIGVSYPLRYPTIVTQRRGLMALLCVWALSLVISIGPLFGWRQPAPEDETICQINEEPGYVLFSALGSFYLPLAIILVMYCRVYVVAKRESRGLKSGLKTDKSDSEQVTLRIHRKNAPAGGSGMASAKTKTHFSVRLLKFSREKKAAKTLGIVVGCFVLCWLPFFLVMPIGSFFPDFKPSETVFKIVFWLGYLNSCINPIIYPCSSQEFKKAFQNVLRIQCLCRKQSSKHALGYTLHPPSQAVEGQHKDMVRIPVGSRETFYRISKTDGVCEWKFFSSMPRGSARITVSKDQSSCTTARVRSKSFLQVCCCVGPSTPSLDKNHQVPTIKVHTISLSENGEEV

Histamine H1 receptor = Histamine H1 receptor (Homo sapiens, UniProt P35367); experiment: Displacement of [3H]pyrilamine from human histamine H1 receptor
Histamine H1 receptor, sequence (P35367 whole entry): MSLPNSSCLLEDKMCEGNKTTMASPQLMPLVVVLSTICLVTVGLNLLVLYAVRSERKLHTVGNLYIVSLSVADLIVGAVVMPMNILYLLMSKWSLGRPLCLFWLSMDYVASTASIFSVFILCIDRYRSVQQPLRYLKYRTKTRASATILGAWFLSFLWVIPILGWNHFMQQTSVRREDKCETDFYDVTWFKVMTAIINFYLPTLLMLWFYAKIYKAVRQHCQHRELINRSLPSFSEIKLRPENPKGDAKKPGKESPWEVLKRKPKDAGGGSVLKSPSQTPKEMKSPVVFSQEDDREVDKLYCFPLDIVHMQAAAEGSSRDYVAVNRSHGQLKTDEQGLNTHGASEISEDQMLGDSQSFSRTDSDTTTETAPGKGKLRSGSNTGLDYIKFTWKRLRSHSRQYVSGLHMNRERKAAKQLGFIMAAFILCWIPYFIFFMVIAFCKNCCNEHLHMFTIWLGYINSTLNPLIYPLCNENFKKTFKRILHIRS

[5] = target: T1, Melanin-concentrating hormone receptor 1; experiment: Antagonist activity at CART form of human MCH1 receptor expressed in HEK293 cells coexpressing Galphaq assessed as inhibition of MCH-induced intracellular calcium level up to 10 uM by FLIPR assay; assay type: functional, cell-based
Target sequence in this assay (Q99705 whole entry): as the sequence (Q99705 whole entry, looked up) above

Rattus norvegicus [6] = experiment: Reduction in food intake in diet-induced obese Wistar rat chronic feeding model at 6 mg/kg, po once daily after 8 days; assay type: functional, organism-based; set-up: dose 6 mg/kg
Rattus norvegicus [7] = experiment: Reduction in food intake in diet-induced obese Wistar rat chronic feeding model at 6 mg/kg, po once daily measured after 14 days; assay type: functional, organism-based; set-up: dose 6 mg/kg
[8] = target: T5, 5-hydroxytryptamine receptor 1A (Homo sapiens, UniProt P08908); experiment: Inhibition of human 5HT1A
T5 sequence (P08908 whole entry): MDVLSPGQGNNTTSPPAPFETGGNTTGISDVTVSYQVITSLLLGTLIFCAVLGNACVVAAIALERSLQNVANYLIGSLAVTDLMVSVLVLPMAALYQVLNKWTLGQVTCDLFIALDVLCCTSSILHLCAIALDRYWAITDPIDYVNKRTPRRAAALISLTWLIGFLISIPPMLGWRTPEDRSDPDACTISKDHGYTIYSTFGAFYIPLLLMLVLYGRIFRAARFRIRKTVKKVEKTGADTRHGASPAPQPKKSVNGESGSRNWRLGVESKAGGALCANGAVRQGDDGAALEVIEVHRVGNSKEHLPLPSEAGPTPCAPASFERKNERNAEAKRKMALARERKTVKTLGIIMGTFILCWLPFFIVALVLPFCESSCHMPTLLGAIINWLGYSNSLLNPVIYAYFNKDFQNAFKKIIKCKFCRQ

Rattus norvegicus [9] = experiment: Reduction in food intake in diet-induced obese Wistar rat chronic feeding model at 10 mg/kg, po once daily after 2 days; assay type: functional, organism-based; set-up: dose 10 mg/kg
Rattus norvegicus [10] = experiment: Reduction in body weight in diet-induced obese Wistar rat chronic feeding model at 10 mg/kg, po once daily after 28 days relative to control; assay type: functional; set-up: scale not given: the % may be the effect or the level left
Rattus norvegicus [11] = experiment: Reduction in food intake in diet-induced obese Wistar rat chronic feeding model at 15 mg/kg, po once daily after 3 days; assay type: functional, organism-based; set-up: dose 15 mg/kg
Rattus norvegicus [12] = experiment: Reduction in body weight in diet-induced obese Wistar rat chronic feeding model at 15 mg/kg, po once daily after 14 days relative to control; assay type: functional; set-up: scale not given: the % may be the effect or the level left
Rattus norvegicus [13] = experiment: Reduction in body weight in diet-induced obese Wistar rat chronic feeding model at 10 mg/kg, po once daily up to 28 days measured after 2 weeks of recovery period; assay type: functional, organism-based; set-up: dose 10 mg/kg
Rattus norvegicus [14] = experiment: Reduction in body weight in diet-induced obese Wistar rat chronic feeding model at 15 mg/kg, po once daily up to 14 days measured after recovery period; assay type: functional, organism-based; set-up: dose 15 mg/kg
Rattus norvegicus [15] = experiment: Reduction in body weight in diet-induced obese Wistar rat chronic feeding model at 5 mg/kg, po once daily after 28 days relative to control; assay type: functional; set-up: scale not given: the % may be the effect or the level left
Rattus norvegicus [16] = experiment: Reduction in body weight in diet-induced obese Wistar rat chronic feeding model at 1 mg/kg, po once daily after 28 days; assay type: functional, organism-based; set-up: dose 1 mg/kg
Rattus norvegicus [17] = experiment: Reduction in food intake in diet-induced obese Wistar rat chronic feeding model at 15 mg/kg, po once daily up to 14 days measured after recovery period; assay type: functional, organism-based; set-up: dose 15 mg/kg
Rattus norvegicus [18] = experiment: Reduction in food intake in diet-induced obese Wistar rat chronic feeding model at 10 mg/kg, po once daily up to 28 days measured after 2 weeks of recovery period; assay type: functional, organism-based; set-up: dose 10 mg/kg
Rattus norvegicus [19] = experiment: Reduction in food intake in diet-induced obese Wistar rat chronic feeding model at 5 mg/kg, po once daily after 28 days; assay type: functional, organism-based; set-up: dose 5 mg/kg
Rattus norvegicus [20] = experiment: Reduction in food intake in diet-induced obese Wistar rat chronic feeding model at 1 mg/kg, po once daily after 28 days; assay type: functional, organism-based; set-up: dose 1 mg/kg
[21] = Drug level in Sprague-Dawley rat brain at 10 mg/kg, po after 2 hrs; assay type: ADME, organism-based; set-up: dose 10 mg/kg, route oral
[22] = Drug level in Sprague-Dawley rat brain at 10 mg/kg, po after 4 hrs; assay type: ADME, organism-based; set-up: dose 10 mg/kg, route oral
[23] = Plasma concentration in Sprague-Dawley rat at 10 mg/kg, po after 2 hrs; assay type: ADME, organism-based; set-up: dose 10 mg/kg, route oral
[24] = Plasma concentration in Sprague-Dawley rat at 10 mg/kg, po after 4 hrs; assay type: ADME, organism-based; set-up: dose 10 mg/kg, route oral
Rattus norvegicus [25] = experiment: Toxicity in rat at 100 mg/kg, po once daily after 14 days; conditions: in vivo, 336 h
[26] = target: T2, 5-hydroxytryptamine receptor 2B; experiment: Displacement of [125I]LSD from human 5HT2B receptor
[27] = Ratio of drug level in brain to plasma in po dosed rat; assay type: ADME, organism-based

Row | SMILES | IC50 [1] | IC50 [2] | IC50 [3] | IC50 [4] | IC50 (Histamine H1 receptor) | Activity [5] | further results
1 | Cc1cc(N(C)C)nc(N[C@H]2CC[C@@H](NC(=O)c3cc(C(F)(F)F)cc(C(F)(F)F)c3)CC2)n1 | 8 nM | > 10000 nM | 200 nM | 1.32 µM | 1210 nM |  | 
2 | Cc1cc(N(C)C)nc(N[C@H]2CC[C@@H](NC(=O)c3ccc(Cl)cc3)CC2)n1 | 16 nM | 170 nM | 730 nM | 3 µM | 800 nM |  | 
3 | Cc1cnc(N[C@H]2CC[C@@H](CNC(=O)c3cc(C(F)(F)F)cc(C(F)(F)F)c3)CC2)nc1N1CCCC1 |  |  |  |  |  | inactive | 
4 | Cc1cnc(N[C@H]2CC[C@@H](NC(=O)c3ccc(F)cc3)CC2)nc1N(C)C | 6 nM | 300 nM | 470 nM | 7.5 µM | 810 nM |  | 
5 | Cc1cnc(N[C@H]2CC[C@@H](NC(=O)c3ccc(Cl)cc3)CC2)nc1N(C)C | 10 nM | 300 nM | 1590 nM | > 10 µM | 760 nM |  | 
6 | CN(C)c1ccnc(N[C@H]2CC[C@@H](NC(=O)c3ccc(F)c(F)c3)CC2)n1 |  |  |  |  |  | inactive | 
7 | CCNc1nc(N[C@H]2CC[C@@H](CNC(=O)c3cc(C(F)(F)F)cc(C(F)(F)F)c3)CC2)ncc1C |  |  |  |  |  | inactive | 
8 | Cc1cnc(N[C@H]2CC[C@@H](NC(=O)c3ccc(F)c(F)c3)CC2)nc1NC(C)C |  |  |  |  |  | inactive | 
9 | Cc1cnc(N[C@H]2CC[C@@H](CNC(=O)c3ccc(F)c(F)c3)CC2)nc1N(C)C | 120 nM | 320 nM | 210 nM | 3.6 µM | 920 nM |  | 
10 | CC(C)CC(N(C)C)C1(c2ccc(Cl)cc2)CCC1 (configuration not stated) |  |  |  |  |  |  | Activity (Rattus norvegicus [6]): Active; Activity (Rattus norvegicus [7]): inactive
11 | CCNc1nc(N[C@H]2CC[C@@H](NC(=O)c3ccc(F)c(F)c3)CC2)ncc1C |  |  |  |  |  | inactive | 
12 | Cc1cnc(N[C@H]2CC[C@@H](CNC(=O)c3cc(C(F)(F)F)cc(C(F)(F)F)c3)CC2)nc1N(C)C | 5 nM | 3100 nM | 310 nM | 3.2 µM | > 10000 nM |  | IC50 [8]: 4800 nM; Activity (Rattus norvegicus [9]): Active; Activity (Rattus norvegicus [10]): 17%; Activity (Rattus norvegicus [11]): Active; Activity (Rattus norvegicus [12]): >15%; Activity (Rattus norvegicus [13]): inactive; Activity (Rattus norvegicus [14]): inactive; Activity (Rattus norvegicus [15]): -5.4%; Activity (Rattus norvegicus [16]): inactive; Activity (Rattus norvegicus [17]): inactive; Activity (Rattus norvegicus [18]): inactive; Activity (Rattus norvegicus [19]): inactive; Activity (Rattus norvegicus [20]): inactive; concentration at 2 h [21]: 9 ng/g; concentration at 4 h [22]: 10 ng/g; concentration at 2 h [23]: 50 ng/mL; concentration at 4 h [24]: 63 ng/mL; Activity (Rattus norvegicus [25]): Non-toxic
13 | CNc1nc(N[C@H]2CC[C@@H](NC(=O)c3ccc(F)c(F)c3)CC2)ncc1C |  |  |  |  |  | inactive | 
14 | Cc1cccc(C(=O)N[C@H]2CC[C@@H](Nc3ncc(C)c(N(C)C)n3)CC2)c1 | 2.9 nM | 31 nM | 580 nM | 2.79 µM | 1600 nM |  | 
15 | Cc1cc(N(C)C)nc(N[C@H]2CC[C@@H](NC(=O)c3ccc(Cl)c(Cl)c3)CC2)n1 | 4.8 nM | 130 nM | 130 nM | > 10 µM | 390 nM |  | 
16 | CN(C)c1nc(N[C@H]2CC[C@@H](NC(=O)c3ccc(F)c(F)c3)CC2)nc2ccccc12 |  | 150 nM | 104 nM | 0.3 µM | 150 nM |  | IC50 [26]: 9.66 nM; IC50 [8]: 16.9 nM; concentration at 2 h [21]: 55 ng/g; concentration at 4 h [22]: 70 ng/g; concentration at 2 h [23]: 109 ng/mL; concentration at 4 h [24]: 101 ng/mL; Kp [27]: 0.5
17 | Cc1ccc(C(=O)N[C@H]2CC[C@@H](Nc3ncc(C)c(N(C)C)n3)CC2)cc1 | 13 nM | 120 nM | 1770 nM | > 10 µM | 170 nM |  | 
